Experimental data: US7951954B2, “Bezothiazol derivatives as Beta2 adrenoreceptor agonists” (AstraZeneca AB, priority 2006, dated 2011)
Where a name gives a salt, the structure may show the parent alone. Read-outs that look alike come from different tables or passages of the source.

Columns and labels:
[1] = target: T1, recombinant human α1D receptor (Homo sapiens, UniProt P25100); experiment: Adrenergic α1D selectivity assay, [3H]-prazosin binding to HEK293 membranes; conditions: inhibition of [3H]-prazosin binding, HEK293 membranes with recombinant human α1D; read-out: α1D pEC50 (converted)
T1 construct: expressed in transfected cells; host or cells: HEK293
T1 sequence (P25100 1-572): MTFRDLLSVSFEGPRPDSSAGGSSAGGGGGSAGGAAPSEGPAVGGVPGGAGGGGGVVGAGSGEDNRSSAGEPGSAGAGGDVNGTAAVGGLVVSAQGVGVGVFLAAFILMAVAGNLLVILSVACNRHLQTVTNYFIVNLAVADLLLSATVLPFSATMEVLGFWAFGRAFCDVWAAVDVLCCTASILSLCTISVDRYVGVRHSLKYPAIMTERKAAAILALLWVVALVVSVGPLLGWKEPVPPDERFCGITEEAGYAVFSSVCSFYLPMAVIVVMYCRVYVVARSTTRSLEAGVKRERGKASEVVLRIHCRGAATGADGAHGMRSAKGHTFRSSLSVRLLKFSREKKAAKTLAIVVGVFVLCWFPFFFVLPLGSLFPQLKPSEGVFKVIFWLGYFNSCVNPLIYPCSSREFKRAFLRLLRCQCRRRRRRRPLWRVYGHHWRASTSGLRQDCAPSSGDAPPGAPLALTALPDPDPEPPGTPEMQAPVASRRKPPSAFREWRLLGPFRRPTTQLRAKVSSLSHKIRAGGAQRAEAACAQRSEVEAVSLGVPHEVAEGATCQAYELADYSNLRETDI
Method: (§1) These were diluted in Assay Buffer (50 mM HEPES, 1 mM EDTA, 0.1% gelatin, pH 7.4) to provide a final concentration of membranes that gave a clear window between maximum and minimum specific binding.
Assays were performed in U-bottomed 96-well polypropylene plates. […] For each assay plate 8 replicates were obtained for [^3H]-prazosin binding in the presence of 10 μL vehicle (10% (v/v) DMSO in Assay Buffer; defining maximum binding) or 10 μL BMY7378 (10 μM final concentration; defining non-specific binding (NSB)). Membranes were then added to achieve a final volume of 100 μL. The plates were incubated for 2 hours at room temperature and then filtered onto PEI coated GF/B filter plates, pre-soaked for 1 hour in Assay Buffer, using a 96-well plate Tomtec cell harvester. Five washes with 250 μL wash buffer (50 mM HEPES, 1 mM EDTA, pH 7.4) were performed at 4° C. to remove unbound radioactivity. The plates were dried then sealed from underneath using Packard plate sealers and MicroScint-O (50 μL) was added to each well. The plates were sealed (TopSeal A) and filter-bound radioactivity was measured with a scintillation counter (TopCount, Packard BioScience) using a 3-minute counting protocol.
(§2) Total specific binding (B0) was determined by subtracting the mean NSB from the mean maximum binding. NSB values were also subtracted from values from all other wells.

[2] = target: T2, recombinant human adrenergic beta 1 receptors (Homo sapiens, UniProt P08588); experiment: Adrenergic β1 selectivity assay, [125I]-Iodocyanopindolol binding to membranes; conditions: inhibition of [125I]-Iodocyanopindolol binding, read-out: β1 pEC50 (converted)
T2 construct: purchased Euroscreen
T2 sequence (P08588 whole entry): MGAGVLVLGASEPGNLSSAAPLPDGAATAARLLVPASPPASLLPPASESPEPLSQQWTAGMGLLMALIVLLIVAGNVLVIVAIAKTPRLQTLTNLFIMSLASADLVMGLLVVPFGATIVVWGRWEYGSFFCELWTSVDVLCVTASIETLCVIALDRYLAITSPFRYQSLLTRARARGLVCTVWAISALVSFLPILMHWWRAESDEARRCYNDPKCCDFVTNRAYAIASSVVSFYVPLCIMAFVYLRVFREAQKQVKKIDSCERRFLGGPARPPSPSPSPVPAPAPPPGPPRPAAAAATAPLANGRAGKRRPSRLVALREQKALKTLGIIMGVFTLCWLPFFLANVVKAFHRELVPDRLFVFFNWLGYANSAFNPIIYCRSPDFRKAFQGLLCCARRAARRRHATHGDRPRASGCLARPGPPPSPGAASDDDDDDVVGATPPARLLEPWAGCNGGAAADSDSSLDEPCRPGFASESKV
Method: as §1, with “Membranes containing recombinant human adrenergic beta 1 receptors were obtained from Euroscreen. These” for “These”, “EDTA, 120 mM NaCl,” for “EDTA,”
Assays were performed in U-bottomed 96-well polypropylene plates. 10 μL [^125I]-Iodocyanopindolol (0.036 nM final concentration) and 10 μL of test compound (10× final concentration) were added to each test well. For each assay plate 8 replicates were obtained for [^125I]-Iodocyanopindolol binding in the presence of 10 μL vehicle (10% (v/v) DMSO in Assay Buffer; defining maximum binding) or 10 μL Propranolol (10 μM final concentration; defining non-specific binding (NSB)). Membranes were then added to achieve a final volume of 100 μL. The plates were incubated for 2 hours at room temperature and then filtered onto PEI coated GF/B filter plates, pre-soaked for 1 hour in Assay Buffer, using a 96-well plate Tomtec cell harvester. Five washes with 250 μL wash buffer (50 mM HEPES, 1 mM EDTA, 120 mM NaCl, pH 7.4) were performed at 4° C. to remove unbound radioactivity. The plates were dried then sealed from underneath using Packard plate sealers and MicroScint-O (50 μL) was added to each well. The plates were sealed (TopSeal A) and filter-bound radioactivity was measured with a scintillation counter (TopCount, Packard BioScience) using a 3-minute counting protocol.
as §2

[3] = target: T3, Adrenergic β2 (Homo sapiens, UniProt P07550); experiment: Adrenergic β2 mediated cAMP production in H292 cells (AlphaScreen cAMP detection); assay type: cell-based
T3 construct: endogenous in cells; host or cells: H292 cells
T3 sequence (P07550 whole entry): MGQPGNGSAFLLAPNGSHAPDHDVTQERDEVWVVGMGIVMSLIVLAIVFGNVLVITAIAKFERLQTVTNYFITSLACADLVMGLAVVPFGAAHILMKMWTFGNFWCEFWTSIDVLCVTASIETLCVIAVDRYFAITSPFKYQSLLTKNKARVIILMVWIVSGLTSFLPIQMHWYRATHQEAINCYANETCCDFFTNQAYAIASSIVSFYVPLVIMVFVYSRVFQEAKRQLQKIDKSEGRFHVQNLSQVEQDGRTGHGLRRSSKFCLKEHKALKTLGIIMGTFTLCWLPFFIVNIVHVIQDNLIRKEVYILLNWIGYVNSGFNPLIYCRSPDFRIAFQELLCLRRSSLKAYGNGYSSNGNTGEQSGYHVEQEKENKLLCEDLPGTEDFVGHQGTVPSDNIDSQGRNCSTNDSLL
Method: Adrenergic β2 Mediated cAMP Production
H292 cells were grown in RPMI (Roswell Park Memorial Institute) medium containing, 10% (v/v) FBS (foetal bovine serum) and 2 mM L-glutamine. Cells were grown in 225 cm2 flasks containing 25 mL media in a humidified incubator at 37° C., 5% CO2. Cells were harvested from the flask and passaged at a 1 in 10 dilution once per week.
The media from flasks containing H292 cells was removed, rinsed with 10 mL PBS phosphate buffered saline) and replaced with 10 mL Accutase™ cell detachment solution. Flasks were incubated for 15 minutes in a humidified incubator at 37° C., 5% CO2. The cell suspension was counted and the cells re-suspended in RPMI media (containing 10% (v/v) FBS and 2 mM L-glutamine) at 0.05×10^6 cells per mL. 5000 cells in 100 μL were added to each well of a tissue-culture-treated 96-well plate and the cells incubated overnight in a humidified incubator at 37° C., 5% CO2. The culture media was removed, washed twice with 100 μL assay buffer and replaced with 50 μL assay buffer. Cells were rested at room temperature for 20 minutes after which time 25 μL of rolipram (1.2 mM made up in assay buffer containing 2.4% (v/v) dimethylsulphoxide) was added. Cells were incubated with rolipram for 10 minutes after which time test compounds (made up as ×4 concentrated stocks in assay buffer containing 4% (v/v) dimethylsulphoxide) were added and the cells were incubated for 10 minutes at room temperature. Final rolipram concentration in the assay was 300 μM and final vehicle concentration was 1.6% (v/v) dimethylsulphoxide. The reaction was stopped by removing supernatants, washing once with 100 μL assay buffer and replacing with 50 μL lysis buffer. The cell monolayer was frozen at −80° C. for 30 minutes (or overnight).
The concentration of cAMP (cyclic adenosine monophosphate) in the cell lysate was determined using the AlphaScreen™ methodology. The frozen cell plate was thawed for 20 minutes on a plate shaker then 10 μL of the cell lysate was transferred to a 96-well white plate. 40 μL of mixed AlphaScreen™ detection beads (containing equal volumes of donor beads (pre-incubated with biotinylated cAMP in the dark for 30 minutes) and acceptor beads), was added to each well and the plate incubated at room temperature for 10 hours in the dark. The AlphaScreen™ signal was measured using an EnVision spectrophotometer (Perkin-Elmer Inc.) with the recommended manufacturer's settings. cAMP concentrations were determined by reference to a calibration curve determined in the same experiment using standard cAMP concentrations (made up in lysis buffer in a 96-well tissue-culture-treated plate and frozen/thawed alongside the test samples) and detected using the same protocol. Concentration response curves for agonists were constructed to determine both the pEC50 and Intrinsic Activity.

Compound | EC50 [1] [nM] | EC50 [2] [nM] | Intrinsic Activity [3] | EC50 ([3]; cAMP production in H292 cells, 300 μM rolipram, 10 minutes with compound, read-out: β2 pEC50 (converted)) [nM] | Intrinsic Activity ([3]; fraction relative to the maximum activity determined for formoterol in each experiment, H292 cells, cAMP)
O=c1[nH]c2c(O)ccc([C@@H](O)CNCCc3cccc(CNCc4ccccc4Cl)c3)c2s1 [Example 3, 7-[2-(2-{3-[(2-Chloro-benzylamino)-methyl]-phenyl}-ethylamino)-1R-hydroxy-ethyl]-4-hydroxy-3H-benzothiazol-2-one bis-trifluoroacetate salt] | 158 | 10 | 0.9 |  | 
CC(C)NCc1ccc(CCNC[C@H](O)c2ccc(O)c3[nH]c(=O)sc23)cc1 [Example 53, 4-Hydroxy-7-{1R-hydroxy-2-[2-(4-isopropylaminomethyl)phenyl]ethylamino}-ethyl)-3H-benzothiazol-2-one bis-trifluoroacetate salt] | 398 | 251 |  | 0.631 | 0.9
COc1ccccc1CNCCc1cccc(CCNC[C@H](O)c2ccc(O)c3[nH]c(=O)sc23)c1 [Example 45, 4-Hydroxy-7-[1R-hydroxy-2-(2-{3-[2-(2-methoxy-benzylamino)-ethyl]-phenyl}-ethylamino)-ethyl]-3H-benzothiazol-2-one bis-hydrochloride salt] | 25.1 | 63.1 | 1.0 |  | 
